Reference: patent US9113629B2, “4-amino-6-(4-substituted-phenyl)-picolinates and 6-amino-2-(4-substituted-phenyl)-pyrimidine-4-carboxylates and their use as herbicides” (DOW AGROSCIENCES LLC, priority 2013, dated 2015)
Read-outs that look alike come from different tables or passages of the source.

What was measured:
[1] = test system: Key Broadleaf Weed and Crop Species; experiment: Post-emergent Test II herbicidal activity (Table 5); format: in vivo; details: post-emergence, 336 h, post-emergent, 14 days after application; for pest or weed control at 70 g/ha: 70 g ai/ha; for pest or weed control at 140 g/ha: 140 g ai/ha
How it was run: (§1)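 Greenhouse post-emergent assay: seedlings (first/second true leaf) in Metro-Mix 360 were sprayed at 187 L/ha at a top rate plus twofold dilutions down to 1/16×; solvent-blank controls were included. Percent visual injury was read at 14 d.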

[2] = test system: Key Grass and Sedge Weeds as well as Grass Crops; experiment: Post-emergent Test II herbicidal activity (Table 6); format: in vivo; details: post-emergence, 336 h; for pest or weed control at 70 g/ha: application rate 70 g ai/ha; for pest or weed control at 140 g/ha: application rate 140 g ai/ha
How it was run: as §1

[3] = ABUTH: velvetleaf (Abutilon theophrasti), read-out: Visual Growth Reduction (%) 14 Days After Application ABUTH
[4] = AMARE: redroot pigweed (Amaranthus retroflexus), read-out: Visual Growth Reduction (%) 14 Days After Application AMARE
[5] = BRSNN: oilseed-rape, canola (Brassica napus), read-out: Visual Growth Reduction (%) 14 Days After Application BRSNN
[6] = CHEAL: lambsquarters (Chenopodium album), read-out: Visual Growth Reduction (%) 14 Days After Application CHEAL
[7] = EPHHL: wild poinsettia (Euphorbia heterophylla), read-out: Visual Growth Reduction (%) 14 Days After Application EPHHL
[8] = HELAN: sunflower (Helianthus annuus), read-out: Visual Growth Reduction (%) 14 Days After Application HELAN
[9] = VIOTR: wild pansy (Viola tricolor), read-out: Visual Growth Reduction (%) 14 Days After Application VIOTR
[10] = Triticum aestivum, TRZSS (wheat), read-out: Visual Growth Reduction (%) 14 Days After Application, TRZSS
[11] = CYPES: yellow nutsedge (Cyperus esculentus), read-out: Visual Growth Reduction (%) 14 Days After Application, CYPES
[12] = DIGSA: crabgrass (Digitaria sanguinalis), read-out: Visual Growth Reduction (%) 14 Days After Application, DIGSA
[13] = ECHCG: barnyardgrass (Echinochloa crus-galli), read-out: Visual Growth Reduction (%) 14 Days After Application, ECHCG
[14] = ORYSA: rice (Oryza sativa), read-out: Visual Growth Reduction (%) 14 Days After Application, ORYSA
[15] = SETFA: giant foxtail (Setaria faberi), read-out: Visual Growth Reduction (%) 14 Days After Application, SETFA
[16] = SORVU: grain sorghum (Sorghum vulgare), read-out: Visual Growth Reduction (%) 14 Days After Application, SORVU
[17] = ZEAMX: maize, corn (Zea mays), read-out: Visual Growth Reduction (%) 14 Days After Application, ZEAMX

SMILES	pest or weed control at 70 g/ha [1, 3] [%]	pest or weed control at 140 g/ha [1, 3] [%]	pest or weed control at 70 g/ha [1, 4] [%]	pest or weed control at 140 g/ha [1, 4] [%]	pest or weed control at 70 g/ha [1, 5] [%]	pest or weed control at 140 g/ha [1, 5] [%]	pest or weed control at 70 g/ha [1, 6] [%]	pest or weed control at 140 g/ha [1, 6] [%]	pest or weed control at 70 g/ha [1, 7] [%]	pest or weed control at 140 g/ha [1, 7] [%]	pest or weed control at 70 g/ha [1, 8] [%]	pest or weed control at 140 g/ha [1, 8] [%]	pest or weed control at 70 g/ha [1, 9] [%]	pest or weed control at 140 g/ha [1, 9] [%]	pest or weed control at 70 g/ha [2, 10] [%]	pest or weed control at 140 g/ha [2, 10] [%]	pest or weed control at 70 g/ha [2, 11] [%]	pest or weed control at 140 g/ha [2, 11] [%]	pest or weed control at 70 g/ha [2, 12] [%]	pest or weed control at 140 g/ha [2, 12] [%]	further results
Nc1c(Cl)c(C(=O)O)nc(-c2ccc(I)c(F)c2)c1Cl [Compound 145, 4-Amino-3,5-dichloro-6-(3-fluoro-4-iodophenyl)picolinic acid]	45 to 59	60 to 74	75 to 84	95 to 100	95 to 100	95 to 100	95 to 100	95 to 100	60 to 74	60 to 74	95 to 100	95 to 100	0 to 29	0 to 29	60 to 74	60 to 74	45 to 59	45 to 59	85 to 94	85 to 94	pest or weed control at 70 g/ha [2, 13]: 75 to 84%; pest or weed control at 140 g/ha [2, 13]: 75 to 84%; pest or weed control at 70 g/ha [2, 14]: 0 to 29%; pest or weed control at 140 g/ha [2, 14]: 0 to 29%; pest or weed control at 70 g/ha [2, 15]: 75 to 84%; pest or weed control at 140 g/ha [2, 15]: 75 to 84%; pest or weed control at 70 g/ha [2, 16]: 85 to 94%; pest or weed control at 140 g/ha [2, 16]: 85 to 94%; pest or weed control at 70 g/ha [2, 17]: 75 to 84%; pest or weed control at 140 g/ha [2, 17]: 75 to 84%
Nc1c(Cl)c(C(=O)O)nc(-c2ccc(C(F)(F)F)c(F)c2)c1Cl [Compound 146]	75 to 84	85 to 94	75 to 84	85 to 94	85 to 94	85 to 94	85 to 94	85 to 94	0 to 29	0 to 29	95 to 100	95 to 100	0 to 29	0 to 29	60 to 74	75 to 84	95 to 100	95 to 100	60 to 74	60 to 74	pest or weed control at 70 g/ha [2, 13]: 75 to 84%; pest or weed control at 140 g/ha [2, 13]: 85 to 94%; pest or weed control at 70 g/ha [2, 14]: 0 to 29%; pest or weed control at 140 g/ha [2, 14]: 0 to 29%; pest or weed control at 70 g/ha [2, 16]: 30 to 44%; pest or weed control at 140 g/ha [2, 16]: 30 to 44%; pest or weed control at 70 g/ha [2, 17]: 60 to 74%; pest or weed control at 140 g/ha [2, 17]: 60 to 74%
